The target of assay [1] is T1, GHSR1a (Homo sapiens, UniProt Q92847).
T1 construct: expressed in transfected cells; host or cells: HEK293
Briefly: Calcium FLIPR assay, GHSR-1a agonism. In kind it is cell-based. Further details: Emax: unit not given here. As to conditions: HEK293/GHSR1a cells. In a few lines: (§1)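 HEK293 cells expressing GHSR1a, seeded 24 hr earlier and loaded with calcium dye for 30-60 min at room temperature or 37° C, were read by FLIPR fluorescence. Agonism: compound added at t=20 sec, calcium followed 2 minutes. Antagonism: compound plus ghrelin (10 nM) at t=20 sec; potency from reduction of ghrelin response.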

In assay [2] the target is T1, GHSR1a. Briefly: Calcium FLIPR assay, GHSR-1a antagonism (reduction of ghrelin response). In kind it is cell-based. Particulars: HEK293/GHSR1a cells, ghrelin 10 nM. In a few lines:
as §1

T1 sequence (Q92847 whole entry): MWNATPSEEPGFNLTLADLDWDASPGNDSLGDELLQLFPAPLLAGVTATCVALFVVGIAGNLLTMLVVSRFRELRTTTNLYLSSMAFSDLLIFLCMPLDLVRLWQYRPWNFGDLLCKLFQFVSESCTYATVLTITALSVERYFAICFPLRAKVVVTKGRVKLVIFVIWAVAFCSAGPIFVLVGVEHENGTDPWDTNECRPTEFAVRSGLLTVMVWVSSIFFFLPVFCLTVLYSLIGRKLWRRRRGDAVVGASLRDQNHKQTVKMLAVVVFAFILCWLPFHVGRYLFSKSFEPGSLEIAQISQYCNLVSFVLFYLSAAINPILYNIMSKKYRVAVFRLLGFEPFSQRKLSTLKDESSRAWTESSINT

On to `CC(NC(=O)N(C)C1CCN(C)CC1)c1ccc(-c2cncc(-c3cnn(C)c3)c2)c(Cl)c1Cl` (stereo not shown) [Compound H0748, 3-(1-(2,3-dichloro-4-(5-(1-methyl-1H-pyrazol-4-yl)pyridin-3-yl)phenyl)ethyl)-1-methyl-1-(1-methylpiperidin-4-yl)urea], for which the EC50 in assay [1] is above 30000 nM. Moreover, the IC50 in assay [2] turned out to be 554 nM.
On to `CC(NC(=O)N(C)C1CCN(C)CC1)c1ccc(-c2cnc(O)nc2)c(Cl)c1Cl` (stereo not shown) [Compound H0797, 3-(1-(2,3-dichloro-4-(2-hydroxypyrimidin-5-yl)phenyl)ethyl)-1-methyl-1-(1-methylpiperidin-4-yl)urea], for which, in assay [1], the EC50 stood at 1800 nM and the Emax is given as 2879. Besides, the IC50 in assay [2] was determined as 594 nM.
In the case of `CC(NC(=O)N(C)C1CCN(C)CC1)c1ccc(-c2cncc(/C=N/O)c2)c(Cl)c1Cl` (stereo not shown) [Compound H0646, (E)-3-(1-(2,3-dichloro-4-(5-((hydroxyimino)methyl)pyridin-3-yl)phenyl)ethyl)-1-methyl-1-(1-methylpiperidin-4-yl)urea], the EC50 in assay [1] was above 30000 nM. Moreover, the IC50 in assay [2] stood at 541 nM.
With `CCc1cncc(-c2ccc(C(C)NC(=O)N(C)C3CCN(C)CC3)c(Cl)c2Cl)c1` (stereo not shown) [Compound H0715, 3-(1-(2,3-dichloro-4-(5-ethylpyridin-3-yl)phenyl)ethyl)-1-methyl-1-(1-methylpiperidin-4-yl)urea], in assay [1], the half-maximal effective concentration (EC50) came to 42 nM and the Emax is given as 2479. Also, the IC50 in assay [2] came to 57 nM.
As to `CC(NC(=O)N(C)C1CCN(C)CC1)c1ccc(C#Cc2ccccn2)c(Cl)c1Cl` (stereo not shown) [Compound H0734, 3-(1-(2,3-dichloro-4-(pyridin-2-ylethynyl)phenyl)ethyl)-1-methyl-1-(1-methylpiperidin-4-yl)urea], the EC50 in assay [1] was above 30000 nM. In addition, the IC50 in assay [2] came out at 202 nM.
Take `CC(NC(=O)N(C)C1CCN(C)CC1)c1ccc(-c2csc(N)n2)c(Cl)c1Cl` (stereo not shown) [Compound H0794, 3-(1-(4-(2-aminothiazol-4-yl)-2,3-dichlorophenyl)ethyl)-1-methyl-1-(1-methylpiperidin-4-yl)urea]: in assay [1], the EC50 was found to be 10 nM and the Emax amounted to 4435. Moreover, the IC50 in assay [2] stood at 3 nM.
As for `CC(NC(=O)N(C)C1CCN(C)CC1)c1ccc(-c2cnn(C3CC3)c2)c(Cl)c1Cl` (stereo not shown) [Compound H0842, 3-(1-(2,3-dichloro-4-(1-cyclopropyl-1H-pyrazol-4-yl)phenyl)ethyl)-1-methyl-1-(1-methylpiperidin-4-yl)urea], in assay [1], the EC50 turned out to be 67 nM and the Emax amounted to 1411. Besides, the IC50 in assay [2] came to 64 nM.
Turning to `CC(=O)c1ccsc1-c1ccc(C(C)NC(=O)N(C)C2CCN(C)CC2)c(Cl)c1Cl` (stereo not shown) [Compound H0688, 3-(1-(4-(3-acetylthiophen-2-yl)-2,3-dichlorophenyl)ethyl)-1-methyl-1-(1-methylpiperidin-4-yl)urea], in assay [1], the EC50 is 12 nM and the Emax was determined as 3100. For the same molecule, the IC50 in assay [2] stood at 3 nM.
Consider `CC(NC(=O)N(C)C1CCN(C)CC1)c1ccc(NC2CC2)c(Cl)c1Cl` (stereo not shown) [Compound H0846, 3-(1-(2,3-dichloro-4-(cyclopropylamino)phenyl)ethyl)-1-methyl-1-(1-methylpiperidin-4-yl)urea], for which, in assay [1], the concentration for a half-maximal effect (EC50) was 130 nM and the Emax was 3815. The IC50 in assay [2] was determined as 170 nM.
As for `CC(NC(=O)N(C)C1CCN(C)CC1)c1ccc(-c2cccc(C(N)=O)c2)c(Cl)c1Cl` (stereo not shown) [Compound H0612, 2′,3′-dichloro-4′-(1-(3-methyl-3-(1-methylpiperidin-4-yl)ureido)ethyl)-[1,1′-biphenyl]-3-carboxamide], the EC50 in assay [1] is above 30000 nM. Further, the IC50 in assay [2] was 1600 nM.
On to `CC(NC(=O)N(C)C1CCN(C)CC1)c1ccc(OC2CC2)c(Cl)c1Cl` (stereo not shown) [Compound H0875, 3-(1-(2,3-dichloro-4-cyclopropoxyphenyl)ethyl)-1-methyl-1-(1-methylpiperidin-4-yl)urea], for which, in assay [1], the half-maximal effective concentration (EC50) worked out at 50 nM and the Emax is 3751. Moreover, in assay [2], the IC50 came to 91 nM.
In the case of `CN1CCC(N(O)C(=O)NC(CC2CC2)c2ccc(-c3cnccn3)c(Cl)c2Cl)CC1` (single isomer, unassigned) [Compound H0781, 3-(2-cyclopropyl-1-(2,3-dichloro-4-(pyrazin-2-yl)phenyl)ethyl)-1-hydroxy-1-(1-methylpiperidin-4-yl)urea], in assay [1], the EC50 was found to be 420 nM and the Emax worked out at 4210. The IC50 in assay [2] was determined as 95 nM.
For `CC(NC(=O)N(C)C1CCN(C)CC1)c1ccc(-c2cccs2)c(Cl)c1Cl` (single isomer, unassigned) [Compound H0564, 3-(1-(2,3-dichloro-4-(thiophen-2-yl)phenyl)ethyl)-1-methyl-1-(1-methylpiperidin-4-yl)urea] the same measures were 124 nM, 1987 and 75 nM.
Regarding `CC(NC(=O)N(C)C1CCOCC1)c1ccc(-c2cncnc2)c(Cl)c1Cl` (stereo not shown) [Compound H0586, 3-(1-(2,3-dichloro-4-(pyrimidin-5-yl)phenyl)ethyl)-1-methyl-1-(tetrahydro-2H-pyran-4-yl)urea], the EC50 in assay [1] was found to be 63000 nM. Moreover, the IC50 in assay [2] was 4200 nM.
In the case of `CC(NC(=O)N(C)C1CCN(C)CC1)c1ccc(-c2cnc(-n3ccnc3)nc2)c(Cl)c1Cl` (stereo not shown) [Compound H0803, 3-(1-(4-(2-(1H-imidazol-1-yl)pyrimidin-5-yl)-2,3-dichlorophenyl)ethyl)-1-methyl-1-(1-methylpiperidin-4-yl)urea], in assay [1], the EC50 was determined as 149 nM and the Emax is 2364. Further, the IC50 in assay [2] is 171 nM.
Regarding `CC(=O)Nc1cncc(-c2ccc(C(C)NC(=O)N(C)C3CCN(C)CC3)c(Cl)c2Cl)c1` (stereo not shown) [Compound H0712, N-(5-(2,3-dichloro-4-(1-(3-methyl-3-(1-methylpiperidin-4-yl)ureido)ethyl)phenyl)pyridin-3-yl)acetamide], in assay [1], the concentration for a half-maximal effect (EC50) is 220 nM and the Emax came to 1962. The IC50 in assay [2] amounted to 420 nM.
`CC(=O)c1cncc(-c2ccc(C(C)NC(=O)N(C)C3CCN(C)CC3)c(Cl)c2Cl)c1` (stereo not shown) [Compound H0690, 3-(1-(4-(5-acetylpyridin-3-yl)-2,3-dichlorophenyl)ethyl)-1-methyl-1-(1-methylpiperidin-4-yl)urea]: the EC50 in assay [1] was above 30000 nM. The IC50 in assay [2] was 980 nM.
For `CON(C(=O)NC(C)c1ccc(-c2cnccn2)c(Cl)c1Cl)C1CCN(C)CC1` (stereo not shown) [Compound H0743, 3-(1-(2,3-dichloro-4-(pyrazin-2-yl)phenyl)ethyl)-1-methoxy-1-(1-methylpiperidin-4-yl)urea] the same measures were above 30000 nM and 94 nM.
As to `CC(NC(=O)N(C)C1CCN(C)CC1)c1ccc(-c2ccc(C(=O)O)s2)c(Cl)c1Cl` (stereo not shown) [Compound H0689, 5-(2,3-dichloro-4-(1-(3-methyl-3-(1-methylpiperidin-4-yl)ureido)ethyl)phenyl)thiophene-2-carboxylic acid], in assay [1], the EC50 was above 30000 nM. The IC50 in assay [2] was above 1000 nM.
Regarding `COC(=O)/C=C/c1ccc(C(C)NC(=O)N(C)C2CCN(C)CC2)c(Cl)c1Cl` (stereo not shown) [Compound H0641, methyl (E)-3-(2,3-dichloro-4-(1-(3-methyl-3-(1-methylpiperidin-4-yl)ureido)ethyl)phenyl)acrylate], in assay [1], the EC50 turned out to be 35 nM and the Emax is recorded as 1690. Also, in assay [2], the IC50 was 18 nM.

The values are drawn from US9546157B2, “Asymmetric piperidinyl-substituted ureas as medicines” (Helsinn Healthcare SA, priority 2014, dated 2017).
